{"source": "patent US5574043A", "about": "“Certain [1,2,5-thiadiazol-4-yl]-1-azabicyclo [3.2.1]octane derivatives and their pharmaceutical uses” (Novo Nordisk A/S, priority 1995, dated 1996)", "key": {"[1]": {"details": "in vivo; cited from earlier work"}, "[2]": {"tested_on": "central and peripheral muscarinic effects", "details": "cited from earlier work"}, "[3]": {"biological_target": "muscarinic acetylcholine receptors", "test": "Inhibition of specific binding of 3H-Oxotremorine-M (OXO BINDING) in vitro, rat cortex", "parameters": "species or system male Wistar rats", "details": "rat cortex homogenate, 3H-Oxotremorine 1.0 nM, 30 min at 25° C., pH 7.4", "how_it_was_run": "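Washed male Wistar rat cortex membranes in 20 mM Hepes pH 7.4 incubated 30 min at 25° C with 1.0 nM ³H-Oxotremorine-M (final) and test compound; nonspecific binding with 1 μg/ml arecoline. Filtration and scintillation counting; IC50 (ng/ml) for specific binding calculated assuming mass-action kinetics.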"}}, "note": "Where a name gives a salt, the structure may show the parent alone."}
{"smiles": "COC(=O)C1=CCCN(C)C1", "note": "[Arecoline, methyl 1-methyl-1,2,5,6-tetrahydropyridine-3carboxylate]", "values": [{"measurement": "biological half life", "setting": "[1]", "value": "very short"}, {"measurement": "separation between central and peripheral muscarinic effects", "setting": "[2]", "value": "small separation"}]}
{"smiles": "CCCCCCOc1nsnc1C1=CN2CCC1CC2.O=C(O)C(=O)O", "note": "[Compound 5, 3-(3-Hexyloxy-1,2,5-thiadiazol-4-yl)-1-azabicyclo[2.2.2]oct-2-ene oxalate]", "values": [{"measurement": "Inhibition in vitro OXO BINDING IC50", "setting": "[3]", "value": 18, "unit": "ng/mL"}]}
{"smiles": "CCCCOc1nsnc1C1=C(Cl)C2CCCN(C1)C2.O=C(O)C(=O)O", "note": "(stereo not shown) [Compound 93, 4-Chloro-3-(3-butoxy-1,2,5-thiadiazol-4-yl)-1-azabicyclo[3.3.1]non-3-ene oxalate]", "values": [{"measurement": "Inhibition in vitro OXO BINDING IC50", "setting": "[3]", "value": 9.0, "unit": "ng/mL"}]}
{"smiles": "C=CCCCCOc1nsnc1C1CN2CCC1CC2.O=C(O)/C=C/C(=O)O", "note": "(stereo not shown) [Compound 48, 3-(3-(5-Hexenyloxy)-1,2,5-thiadiazol-4-yl)-1-azabicyclo[2.2.2]octane fumarate]", "values": [{"measurement": "Inhibition in vitro OXO BINDING IC50", "setting": "[3]", "value": 0.43, "unit": "ng/mL"}]}
{"smiles": "CSc1nsnc1C1CN2CCC1CC2.O=C(O)C(=O)O", "note": "(stereo not shown) [Compound 131, 3-(3-Methylthio-1,2,5-thiadiazol-4-yl)-1-azabicyclo[2.2.2]octane oxalate]", "values": [{"measurement": "Inhibition in vitro OXO BINDING IC50", "setting": "[3]", "value": 0.96, "unit": "ng/mL"}]}
{"smiles": "Clc1nsnc1[C@@H]1CN2CC[C@@H]1C2", "note": "(relative stereo) [Compound 21, Exo-3-(3-chloro-1,2,5-thiadiazol-4-yl)-1-azabicyclo[2.2.1]heptane oxalate]", "values": [{"measurement": "Inhibition in vitro OXO BINDING IC50", "setting": "[3]", "value": 0.96, "unit": "ng/mL"}]}
{"smiles": "CCCCS(=O)(=O)c1nsnc1[C@@H]1CN2CCC[C@@H]1C2", "note": "(relative stereo) [Compound 115, Exo-6-(3-butylsulfonyl-1,2,5-thiadiazol-4-yl)-1-azabicyclo[3.2.1]octane oxalate]", "values": [{"measurement": "Inhibition in vitro OXO BINDING IC50", "setting": "[3]", "value": 0.50, "unit": "ng/mL"}]}
{"smiles": "Clc1nsnc1[C@@H]1CN2CCC[C@@H]1C2", "note": "(relative stereo) [Compound 15, Exo-6-(3-chloro-1,2,5-thiadiazol-4-yl)-1-azabicyclo[3.2.1]octane]", "values": [{"measurement": "Inhibition in vitro OXO BINDING IC50", "setting": "[3]", "value": 0.61, "unit": "ng/mL"}]}
{"smiles": "c1ccc2sc(SCCCCSc3nsnc3C3CN4CCC3CC4)nc2c1", "note": "(stereo not shown) [Compound 108, 3-(3-(4-(2-Benzothiazolyl)thio)butylthio-1,2,5-thiadiazol-4-yl)-1-azabicyclo[2.2.2]octane oxalate]", "values": [{"measurement": "Inhibition in vitro OXO BINDING IC50", "setting": "[3]", "value": 16, "unit": "ng/mL"}]}
